Assay results taken from ChEMBL document CHEMBL6153072, “Metabolically Stable Adenylation Inhibitors of Biotin Protein Ligase as Antibacterial Agents” (J Med Chem, 2025).
In brackets after ≈: the same amount, converted by molar mass.

How the values were obtained:
Assay type in all cases: functional
[1] = test system: Mycobacterium tuberculosis; test: Antimicrobial activity against Mycobacterium tuberculosis H37Rv harboring ultra-under-expression of BPL by broth microdilution assay
[2] = test system: Mycobacterium tuberculosis; test: Antimicrobial activity against Mycobacterium tuberculosis H37Rv harboring medium under-expression of BPL by broth microdilution assay
[3] = test system: Mycobacterium tuberculosis; test: Antimicrobial activity against Mycobacterium tuberculosis H37Rv harboring medium over-expression of BPL by broth microdilution assay
[4] = test system: Mycobacterium tuberculosis; test: Antimicrobial activity against Mycobacterium tuberculosis H37Rv harboring high over-expression of BPL by broth microdilution assay

SMILES	MIC50 [1] [µM]	MIC50 [2] [µM]	MIC50 [3] [µM]	MIC50 [4] [µM]
Nc1cccc2c1ncn2CCCCNS(=O)(=O)NC(=O)CCCC[C@@H]1SC[C@@H]2NC(=O)N[C@@H]21	16 (≈ 8.15 µg/mL)	18 (≈ 9.17 µg/mL)	–	–
Nc1ncnc2c1ncn2[C@@H]1O[C@H](CNS(=O)(=O)[N-]C(=O)CCCC[C@@H]2SC[C@@H]3NC(=O)N[C@@H]32)[C@@H](O)[C@H]1O.[Na+]	0.047	0.14	11	16
Nc1ncnc2c1ncn2[C@@H]1O[C@H](CNS(=O)(=O)[N-]C(=O)NCCC[C@@H]2SC[C@@H]3NC(=O)N[C@@H]32)[C@@H](O)[C@H]1O.[Na+]	0.28	0.89	> 100	> 100
CC(CCC[C@@H]1SC[C@@H]2NC(=O)N[C@@H]21)C(=O)[N-]S(=O)(=O)NC[C@H]1O[C@@H](n2cnc3c(N)ncnc32)[C@H](O)[C@@H]1O.[Na+] (some centres undefined)	0.79	3.7	> 100	> 100
